Measurements: publication PMC7613515, “Reading and erasing of the phosphonium analogue of trimethyllysine by epigenetic proteins” (Communications Chemistry, 2022)

How the values were obtained:
KDM4EJmjC (M1–Q337) = molecular target: T1, KDM4EJmjC (M1–Q337) (Homo sapiens, UniProt B2RXH2); assay: LC-MS demethylation assay, KDM4EJmjC; assay type: biochemical; settings: LC-MS time-course, KDM4EJmjC 0.5 µM, peptide 5.0 µM, 22 °C
T1 construct: We chose human KDM4EJmjC (M1–Q337); made in house
T1 sequence (B2RXH2 1-337): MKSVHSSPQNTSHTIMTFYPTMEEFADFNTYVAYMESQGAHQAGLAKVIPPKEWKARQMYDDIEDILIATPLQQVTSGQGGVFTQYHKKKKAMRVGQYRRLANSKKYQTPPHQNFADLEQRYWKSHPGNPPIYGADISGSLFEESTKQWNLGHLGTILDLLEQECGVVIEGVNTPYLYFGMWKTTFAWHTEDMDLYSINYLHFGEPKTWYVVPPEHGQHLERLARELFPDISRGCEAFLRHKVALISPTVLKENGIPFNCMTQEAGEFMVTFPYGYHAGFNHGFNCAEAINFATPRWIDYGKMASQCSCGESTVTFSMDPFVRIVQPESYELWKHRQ
Description: KDM4EJmjC demethylation studies of H3_1-15K9me3 or H3_1-15KP9me3 incubations using LC-MS were conducted as reported[31], using Agilent RapidFire 365 and Agilent QTOF 6530 machines. In brief, samples were aspirated under vacuum (~50 µL), passed through a loop (10 µL, 400 ms) and wash on a SPE cartridge A (C4) using solvent A (1.5 mL·min^−1, 4500 ms). Peptides were eluted using solvent B (1.25 mL·min^−1, 4500 ms) and directed to the MS for measurements. The cartridge was equilibrated for the next sample (1.25 mL·min^−1, 500 ms) and needle was cleaned with an organic wash solution. Between each sample, an alternating inorganic, organic and inorganic washes were performed to avoid any potential carry over on the SPE cartridge from previous sample. Solvent A: formic acid (0.1%) in water; Solvent B: formic acid (0.1%), acetonitrile (85%) in water; Inorganic wash: water; Organic wash: acetonitrile. Demethylation reactions were conducted in a temperature-controlled room (22 °C) and the MS machine Real-time monitoring mode. A solution [Peptide (6.0 µM), sodium L-ascorbate (600 µM), (NH4)2Fe(II)(SO4)2 (60 µM), disodium 2OG salt (120 µM) in buffer] […] (100 µL) was added and samples from the solution were taken every 2–2.5 min and measured. Note that the time was recorded between the addition and the first aspiration of the enzymatic reaction mixture [Peptide and Enzyme solution mixture]. […]

SGF29TTD (R115–K293) = molecular target: T2, SGF29TTD (R115–K293) (Homo sapiens, UniProt Q96ES7); assay: ITC, association of histone H3 peptides with SGF29TTD; assay type: binding
T2 construct: SGF29TTD (R115–K293); made in house; host or cells: E. coli
T2 sequence (Q96ES7 115-293): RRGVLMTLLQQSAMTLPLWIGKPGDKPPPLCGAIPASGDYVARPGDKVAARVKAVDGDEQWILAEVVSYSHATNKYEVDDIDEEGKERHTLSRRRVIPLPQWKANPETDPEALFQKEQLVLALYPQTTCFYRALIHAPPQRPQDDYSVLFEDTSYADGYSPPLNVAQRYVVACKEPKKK
Description: We investigated the thermodynamics of association of the H3KP4me3 peptide with five representative human reader domains containing either a PHD zinc finger or TTD, i.e. KDM5APHD3 (JARID1A-PHD3, residues M1489–V1641)[10], TAF3PHD (R857–K924)[22], BPTFPHD (L2583–N2751)[23], SGF29TTD (R115–K293)[24] and KDM4ATTD (JMJD2A, Q897-P1011)[25], selected on the basis of their preference for binding Ν^ε-trimethyllysine over other (non)methylation marks (Kme0 < Kme1 < Kme2 < Kme3), and their domain and aromatic cage diversity. The recombinant readers were produced in E. coli following reported procedures. Isothermal titration calorimetric (ITC) analyses were used to determine the dissociation constant (Kd), the Gibbs free energy of binding (ΔG°), the enthalpy of binding (ΔH°), and the entropy of binding (ΔS°). […] (Table 1, Fig. 2, Supplementary Fig. 1).
The following purified reader domains: TAF3PHD (R857-K924), KDM5APHD3 (JARID1A, M1489-V1641), BPTFPHD (L2583-N2751), KDM4ATTD (JMJD2A, Q897-P1011) and SGF29TTD (R115-K293) were prepared as reported[10],[22]–[26]. The histone lysine demethylase were produced and purified to high purity via reported procedures KDM3A (JMJD1A, T515-S1317)[41], KDM4AJmjC[39] (JMJD2A, M1-L359), KDM4EJmjC (JMJD2E, M1–Q337)[34] and KDM7B[40] (PHF8, M37-N483 [NP_001171]). KDM5DJmjC was produced using an N-terminal hexa-His tagged KDM4D (KDM4DM1-L358) DNA construct, transformed into BL21(DE3) competent cells for recombinant protein production. Colonies were used to inoculate of LB media (50 mL) containing kanamycin (50 µg·mL^−1) and chloramphenicol (34 µg·mL^−1), which was placed in a 37 °C shaker overnight. The starter culture (10 mL) was used to inoculate TB media (6 × 1 L) containing kanamycin (50 µg·mL^−1) in 2 L baffled shaker flasks. After reaching an of OD600 of ~0.8, the temperature was reduced to 18 °C; at OD600 ~0.9 the cells were induced by the IPTG (0.5 mM) addition. After shaking overnight, the culture was centrifuged (5000 rpm, 10 mins), the media was decanted, and the cell pellet was suspended in Lysis Buffer [HEPES (50 mM), NaCl (500 mM), imidazole (20 mM), glycerol (5%) and TCEP (0.5 mM) in water (pH 7.4)]. The suspension was lysed by passaging through a high-pressure cell breaker (Avestin – EmulsiFlex-C5) for three rounds. The lysate was cleared by centrifugation (60 minutes, 36,000 × g, 4 °C), then loaded onto a Ni NTA gravity column. After extensive rinsing of the Ni-NTA gravity column with lysis buffer, the His-tagged protein was eluted in lysis buffer containing 300 mM imidazole. The eluted protein was concentrated and subjected to gel filtration chromatography using an AKTA Xpress system, an S200 16/600 gel filtration column, and GF buffer [HEPES (50 mM), NaCl (150 mM), glycerol (5%) and TCEP (0.5 mM) in water (pH 7.4)]. The protein identity was verified by LC-MS (ESI-TOF) observing a mass of 43759.7 Da, in accord with the predicted mass of 43751.6 Da.
ITC studies followed a reported procedure. The buffer used corresponded to that used in the final protein purification step. […] Histone peptide titrations were performed with the same reader batches. Solutions of the reader in buffer (25–40 µM) and of the histone H3 peptide (350–600 µM) in buffer were prepared. […] Heats of dilution for histone peptides determined in control experiments were subtracted from the titration binding data. […]

[1] = 25 °C, H3 1-10 peptide, pH 7.5, from 3 to 5 experiments, ± SD

| Compound | demethylation (KDM4EJmjC (M1–Q337)) | -TΔS° (SGF29TTD (R115–K293); [1]) | ΔG° (SGF29TTD (R115–K293); [1]) | ΔH° (SGF29TTD (R115–K293); [1]) | binding affinity relative to H3K4me3 (SGF29TTD (R115–K293); SGF29TTD) |
| --- | --- | --- | --- | --- | --- |
| ARTKQTAR(KPme3)STGGKA [H3KP9me3, histone H3 residues 1–15 with trimethylphosphonium lysine analogue at position 9] | both are substrates | – | – | – | – |
| C[C@H](N)C(=O)N[C@@H](CCCNC(=N)N)C(=O)N[C@H](C(=O)N[C@@H](CCCC[P+](C)(C)C)C(=O)N[C@@H](CCC(N)=O)C(=O)N[C@H](C(=O)N[C@@H](C)C(=O)N[C@@H](CCCNC(=N)N)C(=O)N[C@@H](CCCCN)C(=O)N[C@@H](CO)C(N)=O)[C@@H](C)O)[C@@H](C)O [H3KP4me3] | – | 1.0 ± 0.1 kcal/mol | -7.6 ± 0.1 kcal/mol | -8.6 ± 0.1 kcal/mol | comparable binding affinity for H3K4me3 and H3KP4me3 |
